Results on three compounds are retold here after patent publication US9770436B2, “Polymorphs of azabicyclohexane” (EUTHYMICS BIOSCIENCE, INC., priority 2004, dated 2017).

Data set [1] can be described thus: Informal storage stability of the Example 1 hydrochloride salt (50% by weight mixture of polymorph forms A and B) in desiccators; polymorph content by XRPD and Raman. It counts as physicochemical. To be noted: started as 50% (by weight) A / 50% B, XRPD. Here is the method: The X-ray powder diffraction pattern (XRPD) analyses of polymorph forms A, B and C were performed with a Shimadzu XRD-6000 X-ray powder diffractometer using Cu Ka radiation. In this procedure the compound as a hydrochloride salt was loaded onto the machine as a crystalline powder. The instrument was equipped with a long fine focus X-ray tube. The tube voltage and amperage were set to 40 kV and 40 mA, respectively. The divergence and scattering slits were set at 1° and the receiving slit was set at 0.15 mm. Diffracted radiation was detected by a Nal scintillation detector. A theta-two theta continuous scan at 3°/min (0.4 sec/0.02° step) from 2.5 to 40° 2θ was used. A silicon standard was analyzed to check the instrument alignment. Data were collected and analyzed using XRD-6000 v. 4.1.
Briefly, Raman spectra were obtained using a FT-Raman 960 (or 860) spectrometer (Thermo Nicolet) interfaced to an 860 FT-IR. This spectrometer uses an excitation wavelength of 1064 nm. Approximately 0.912 W of Nd:YV04 laser power was used to irradiate the samples. The Raman spectra were measured with an indium gallium arsenide (InGaAs) detector. The samples were pressed into pellets for analysis. A total of 128 sample scans were collected from 3600 or 3700-98 cm^−1 at a spectral resolution of about (±) 4 cm^−1, using Happ-Genzel apodization. Wavelength calibration was performed using sulfur and cyclohexane. The Raman spectra peak positions given below in wavenumbers (cm^−1) for the purified polymorph forms A, B and C of the hydrochloride salt of (+)-1-(3,4-dichlorophenyl)-3-azabicyclo[3.1.0]hexane are subject to an error of about (±) 4 cm^−1.
Duplicate samples of the hydrochloride salt of (+)-1-(3,4dichlorophenyl)-3-azabicyclo[3.1.0] hexane produced in Example 1 and containing a 50% (by weight) mixture of polymorph form A and polymorph form B were placed on informal stability to test storage in desiccators placed at ambient temperature and at 50° C. in a programmable heating bloc.

For data set [2] the following is noted: (+) isomeric form; cited from earlier work.
Data set [3] in a line: Thermodynamic stability of the crystalline polymorph forms. The note with it: pure crystalline structure, acid addition salt. It counts as physicochemical.
Setting [4] is: 50° C. programmable heating block, after 17 days of storage.
Setting [5] is: desiccator, ambient temperature, after 1 week, confirmed by Raman.

For `Cl.Clc1ccc(C23CNCC2C3)cc1Cl` (stereo not drawn) [Example 1, hydrochloride salt of (+)-1-(3,4dichlorophenyl)-3-azabicyclo[3.1.0] hexane], in data set [1] (setting [4]), the “content of polymorph form A after storage” value is “about 50 % (by weight)” and the “content of polymorph form C after storage” value is 50 % (by weight). For the same compound, in data set [1] (setting [5]), the “content of polymorph form A after storage” value is 40 % (by weight) and the “content of polymorph form B after storage” value is given as 60 % (by weight).
In the case of `Clc1ccc(C23CNCC2C3)cc1Cl` (single isomer, unassigned; (+)) [compound of formula I, (+)-1-(3,4-dichlorophenyl)-3-azabicyclo[3.1.0]hexane], the anti-depressive activity entry in data set [2] is “potent anti-depressive activity”.
As to `Cl.Clc1ccc(C23CNCC2C3)cc1Cl` (stereo not drawn) [polymorph form A, hydrochloride salt of (+)-1-(3,4-dichlorophenyl)-3-azabicyclo[3.1.0]hexane], the “thermodynamic stability of the polymorph form” value in data set [3] is “thermodynamically stable”.
